What was measured:
8226-s = assay: MTS viability assay, 8226-s; format: cell-based; details: Homo sapiens; 8226-s parental
Procedure: (§1) Cells were collected 24 hours post drug exposure and extracts subjected to western blotting using antibodies to the indicated proteins. Cleavage of PARP indicates apoptosis.
(§2) To examine its effect on a range of commonly studied cell lines, the inventors utilized standard MTS assays to quantify cell viability following the therapeutic compound treatment. Cytotoxicity was determined using MTS assays, which were conducted using a CellTiter 96® AQueous One Cell Proliferation Assay Kit (Promega) following the published protocol. Cells in 0.1 ml volume were plated in triplicate into 96-well plates, 1×10^4 cells/well. the therapeutic compound was added and after 24 hours of incubation at 37° C., 20 μl of MTS dye was added to each well. Plates were read at 490 nm following 4 hrs MTS reaction time. The concentration of drug which produced a 50% inhibition of growth (IC50) was calculated from linear regression analysis of the linear portion of the growth curves.

8226-dox40 = assay: MTS viability assay, 8226-dox40; format: cell-based; details: Homo sapiens
Procedure: as §1, §2

A375 melanocytes = assay: Three-dimensional skin model of A375 proliferation and invasion; format: cell-based, human; details: for activated caspase-3 positive cells (IHC): day 2, 5 or 8; for proliferation and invasion of melanocytes (S-100 IHC): day 12, 16 and 20
Procedure: Culture inserts of differentiated full-thickness 3D skin reconstruction model of A375 melanoma cells were purchased from MatTek (Ashland, Mass.). These were prepared by culturing mixed suspensions of normal human epidermal keratinocytes and A375 cells (1:10 ratio) on fibroblast contracted collagen gels and allowing differentiation for approximately one week in serum free media to form a 3D skin-like structure. These cultures were treated with 0, 40 or 80 μM 6474 and harvested after 0, 2, 5, 8, 12, 16 and 20 days.
In this model, the highly metastatic A375 melanocytes were mixed with normal human keratinocytes and seeded on fibroblast-contracted collagen gels. The mixed cells were then induced to differentiate in serum free media to form three-dimensional, highly differentiated, full thickness skin-like tissues. After seven days of differentiation the cells were then treated with 0 (DMSO carrier alone), 40 or 80 μM the therapeutic compound. The three-dimensional models were then cultured for 2, 5, 8, 12, 16 and 20 days. At the appointed time, 3D cultures were fixed in formalin, paraffin embedded, sectioned and either stained with H&E or processed for immunohistochemistry (1HC) using antibodies against S-100 to measure expression of a melanocyte marker, E2F4 to determine if it were down regulated as in 2D culture, activated caspase-3 to measure apoptosis and […] to measure the proliferative index.

MCF-7 = assay: Apo-BrdU TUNEL apoptosis assay, MCF-7; format: cell-based, human; details: 40-μM, 24-hrs
Text: (§3) To determine if treatment with the therapeutic compound contributes to apoptosis, Cells were detached from culture plates by trypsin treatment, washed twice with PBS, and fixed in 70% ethanol. Fixed cells were washed twice with PBS and treated with RNase A and propidium iodide (PI). PI staining was examined using a Becton-Dickinson FACScan instrument and Cell Quest software. TUNEL assay for apoptosis utilized a Pharmingen APO-BRDU Kit. MTS (3-(4,5-dimethylthiazol-2-yl)-5-(3-carboxymethoxyphenyl)-2-(4-sulfophenyl)-2H-tetrazolium, inner salt) assays were conducted using a CellTiter 96® AQueous One Cell Proliferation Assay Kit (Promega).
(§4) A375, MDA-MB-231 (231), MCF-7 and human foreskin fibroblasts (HFF) cells were treated with 40-μM of the therapeutic compound for 24-hrs and subjected to a FACS based terminal deoxynucleotidyl transferase (TUNEL) assay (Apo-BrdU Kit from BD Pharmingen).

[1] = test system: 8226-s, 8226-dox40 and 8226-MR20; assay: PARP cleavage western in drug sensitive and resistant 8226 lines; format: cell-based, human; details: 24 hours; 10 μM cisplatin or 10, 20 or 40 μM HLM006474
Procedure: as §1

MCF7 cells = assay: RNase protection assay, MCF7; format: cell-based, human
Procedure: The indicated breast cancer lines were treated with 40 micromolar the therapeutic compound and subjected RNAse protection assay 24 hrs later using the indicated probes.
An RNase protection assay was performed to determine if downregulation of the Rb family members at the level of mRNA could account for the downregulation of the proteins. Two breast cancer cell lines were examined at 0, 3, 6, 9, 18 and 24 hr following the therapeutic compound treatment (FIG. 21).

A375 cells [2] = assay: MTS proliferation/viability over time; format: cell-based, human; details: 40 μM, 24-, 48- and 72-hrs
Procedure: as §2, with “Cells in 0.1 ml volume were plated in triplicate into 96-well plates, 1×10^4 cells/well. the therapeutic compound was added and after 24 hours of incubation at 37° C., 20 μl of MTS dye was added to each well.” left out

breast cancer cell lines = assay: Western blots of Rb family members in breast cancer cell lines; format: cell-based; details: 40 micromolar, 24 hrs
A375 cells [3] = assay: Propidium iodide flow cytometry, sub-G1 DNA content; format: cell-based, human; details: 40-μM
Text: as §3

A375 cells [4] = assay: Western blots of treated A375 cells
Procedure: Actin served as a loading control in these experiments and in those that follow.
To determine the activity of the therapeutic compound over time, A375 cells were treated with 40-μM of compound and examined at 0-, 3-, 6-, 9-, 12-, 18- and 24-hrs by EMSA and western (FIG. 11A).
To further examine the timing of the therapeutic compound-induced apoptosis, A375 cells were treated with 40-μM the therapeutic compound, harvested and fixed at various time periods.
To compare the mechanism of the therapeutic compound-induced apoptosis with that of several standard DNA damaging drugs, A375 cells were treated for 24-hrs with 40-μM the therapeutic compound, 10 μM cisplatin, 10 nM doxorubicin, 10 μM VP16 (etoposide) or with two-drug combinations.
Western blots utilized 50 μg of whole cell extract per lane as previously described. […] Detection of proteins was accomplished using horseradish-peroxidase-conjugated secondary antibodies and enhanced chemiluminescence (ECL) purchased from Amersham.

WT MEFS = assay: Apoptosis (ApoBrdU, PARP western) in WT MEFs; format: cell-based, mouse
Procedure: FIG. 12A: MEFS derived from sibling WT and E2F4^−/− mice were treated for 24-hrs with the indicated doses of HLM006474. Apoptosis was determined using ApoBrdU (BD Pharmingen).
FIG. 12B: MEFS derived from sibling WT and E2F4^−/− mice were treated as in A subjected to western blotting using a PARP antibody or E2F4 antibody. PARP cleavage (as indicated by the arrow) is an independent measure of apoptosis.
To determine if the effect of the therapeutic compound is dependent upon E2F4, the inventors compared the therapeutic compound response of immortalized MEFs derived from E2F4-deficient mice with MEFS derived from wildtype siblings.

[5] = test system: human foreskin fibroblasts (HFF); assay: Apo-BrdU TUNEL apoptosis assay, HFF; format: cell-based; details: 40-μM, 24-hrs
Text: as §3, §4

NSCLC lines = assay: Western blots of cell cycle proteins in NSCLC lines; format: cell-based; details: every cell line treated, 40 micromolar, 24 hrs
Procedure: The indicated NSCLC lines were treated with 40 micromolar the therapeutic compound and subjected western blotting 24 hrs later using the indicated antibodies.

[6] = 40 μM, listed as the therapeutic compound

## CCOc1ccc(C(Nc2ccccn2)c2ccc3ccc(C)nc3c2O)cc1C (stereo not drawn) [HLM006474]
8226-s
  IC50: 36 ± 6 µM
8226-dox40
  IC50: 31 ± 4 µM
A375 melanocytes
  effects on the other cells (fibroblasts and keratinocytes) of the 3D tissue: no obvious deleterious effects
A375 melanocytes; 40 μM
  E2F4 levels (IHC): clearly reduced
  activated caspase-3 positive cells (IHC): no detectable increase in apoptotic cells
  proliferation and invasion of melanocytes (S-100 IHC): very rare
A375 melanocytes; 40 μM, day 2, 5 and 8
  Ki-67 staining: decrease in the number of proliferative cells
A375 melanocytes; [6]
  activated caspase-3 positive cells (IHC): no significant difference
  proliferation and invasion of melanocytes (S-100 IHC): significantly inhibited the proliferation and subsequent invasion
A375 melanocytes; 80 μM
  melanocyte proliferation (H&E): essentially no melanocyte proliferation
MCF-7
  apoptosis (TUNEL): did not induce an obvious increase in apoptosis
[1]
  PARP cleavage (apoptosis) in sensitive versus resistant lines: very similar
MCF7 cells; MCF7
  Rb at the mRNA level: no significant change
  p21 mRNA: upregulated
MCF7 cells; MCF7, 0-24 hr
  mRNA for p107: repressed
A375 cells [2]
  cellular proliferation/viability (MTS): significantly affected
Breast cancer cell lines
  Rb and p107 proteins (western): dramatically down regulated
A375 cells [3]
  time at which increase in sub-G1 DNA content begins: approximately 9 hrs
A375 cells [4]; 9-hrs of treatment
  expression of E2F4 or E2F1 (western): does not significantly affect
A375 cells [4]; 24-hrs, 40-μM
  Mcl-1 (western): may slightly repress Mcl-1
  PARP cleavage (western): potent inducer of PARP cleavage
A375 cells [4]; 40-μM
  time at which PARP cleavage indicates significant apoptosis: ≤ 12 h
  time at which decrease in total E2F4 protein became apparent: up to 24 hrs
WT MEFS; 24-hrs, ApoBrdU
  level of apoptosis in WT cells as compared to E2F4-deficient cells: two-fold increase
WT MEFS; E2F4 proficient MEFs
  concentration at which PARP cleavage is evident: 20 µM
[5]
  apoptosis (TUNEL): did not induce an obvious increase in apoptosis
NSCLC lines
  Rb (western): down (at least modestly)
